From the supplement of paper PMC5908809

How the values were obtained:
[1] = system: normal NK cells expanded with K562-aAPC; test: percent inhibition of viability; higher = more inhibition; conditions: 72 h, IL-2 2.5 ng/mL
Description: (§1)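 Drug sensitivity and resistance testing on K562-aAPC-expanded normal NK cells: 5 concentrations (10-fold steps over a 10,000-fold range), 72 h at 37 °C, viability by CellTiter-Glo normalised to DMSO and benzethonium chloride controls; DSS from the fitted curve.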

DERL-7 (IL-2 2.5 ng/mL) [2] = test: as above; conditions: 72 h
IMC-1 (IL-2 20 ng/mL) [3] = test: as above; conditions: 72 h
KAI3 (IL-2 2.5 ng/mL) [4] = test: as above; conditions: 72 h
KHYG-1 (IL-2 2.5 ng/mL) [5] = test: as above; conditions: 72 h
NK-92 (IL-2 2.5 ng/mL) [6] = test: as above; conditions: 72 h
NK-YS (IL-2 2.5 ng/mL) [7] = test: as above; conditions: 72 h
NKL (IL-2 2.5 ng/mL) [8] = test: as above; conditions: 72 h
SNK-6 (IL-2 2.5 ng/mL) [9] = test: as above; conditions: 72 h
YT (IL-2 2.5 ng/mL) [10] = test: as above; conditions: 72 h
[11] = system: normal primary NK cells, pool 1 (3 donors) (IL-2 2.5 ng/mL); test: as above; conditions: 72 h
[12] = system: normal primary NK cells, pool 1 (3 donors), resting (IL-2 0 ng/mL); test: as above; conditions: 72 h
[13] = system: normal primary NK cells, pool 2 (3 donors) (IL-2 2.5 ng/mL); test: as above; conditions: 72 h
[14] = system: normal primary NK cells, pool 3 (3 donors) (IL-2 2.5 ng/mL); test: as above; conditions: 72 h
[15] = system: normal NK cells expanded with K562-aAPC; test: drug sensitivity score (DSS) (DSS units); higher = more sensitive; extreme values may be limits of the assay; conditions: 72 h; IL-2 2.5 ng/mL
Description: as §1

DERL-7 (IL-2 2.5 ng/mL) [16] = test: as above; conditions: 72 h
IMC-1 (IL-2 20 ng/mL) [17] = test: as above; conditions: 72 h
KAI3 (IL-2 2.5 ng/mL) [18] = test: as above; conditions: 72 h
KHYG-1 (IL-2 2.5 ng/mL) [19] = test: as above; conditions: 72 h
NK-92 (IL-2 2.5 ng/mL) [20] = test: as above; conditions: 72 h
NK-YS (IL-2 2.5 ng/mL) [21] = test: as above; conditions: 72 h
NKL (IL-2 2.5 ng/mL) [22] = test: as above; conditions: 72 h
SNK-6 (IL-2 2.5 ng/mL) [23] = test: as above; conditions: 72 h
YT (IL-2 2.5 ng/mL) [24] = test: as above; conditions: 72 h
[25] = system: normal primary NK cells, pool 1 (3 donors) (IL-2 2.5 ng/mL); test: as above; conditions: 72 h
[26] = system: normal primary NK cells, pool 1 (3 donors), resting (IL-2 0 ng/mL); test: as above; conditions: 72 h
[27] = system: normal primary NK cells, pool 2 (3 donors) (IL-2 2.5 ng/mL); test: as above; conditions: 72 h
[28] = system: normal primary NK cells, pool 3 (3 donors) (IL-2 2.5 ng/mL); test: as above; conditions: 72 h

C=CC(=O)N1CCC[C@@H](n2nc(-c3ccc(Oc4ccccc4)cc3)c3c(N)ncnc32)C1 [Ibrutinib] (max concentration tested 1000 nM)
percent inhibition of viability [%]
Conditions | 0.1 nM | 1 nM | 10 nM | 100 nM | 1000 nM
DERL-7 (IL-2 2.5 ng/mL) [2] | 2.78 | 2.44 | 6.17 | 7.83 | 34.1
IMC-1 (IL-2 20 ng/mL) [3] | -4.48 | -0.1 | -1.11 | -2.87 | -8.75
KAI3 (IL-2 2.5 ng/mL) [4] | 1.69 | 2.89 | 0.25 | 8.29 | 20.5
KHYG-1 (IL-2 2.5 ng/mL) [5] | -6.77 | -1.35 | -1.82 | 0.67 | 8.69
NK-92 (IL-2 2.5 ng/mL) [6] | -15.8 | -16.1 | -8.18 | 0.25 | 15.7
NK-YS (IL-2 2.5 ng/mL) [7] | -1.09 | -1.95 | -0.26 | 0.88 | 15.6
NKL (IL-2 2.5 ng/mL) [8] | -5.52 | 0.29 | 10.1 | 24.2 | 30
SNK-6 (IL-2 2.5 ng/mL) [9] | -11.4 | 9.91 | -7.4 | 1.24 | 8.78
YT (IL-2 2.5 ng/mL) [10] | -2.79 | -1.68 | -0.35 | 13.8 | 31.3
[1] | -2.6 | -5.62 | -10 | -0.99 | -0.93
[11] | -0.62 | 9.62 | 12.7 | 12.1 | 21
[12] | -3.67 | 8.12 | 16.8 | 10 | 22.4
[13] | -6.12 | 0.44 | 7.05 | -9.76 | 10.5
[14] | -5.07 | 4.6 | -2.73 | -10.7 | -14

Conditions | drug sensitivity score
DERL-7 (IL-2 2.5 ng/mL) [16] | 2.68
IMC-1 (IL-2 20 ng/mL) [17] | 0
KAI3 (IL-2 2.5 ng/mL) [18] | 1.54
KHYG-1 (IL-2 2.5 ng/mL) [19] | 0
NK-92 (IL-2 2.5 ng/mL) [20] | 0.3
NK-YS (IL-2 2.5 ng/mL) [21] | 0.35
NKL (IL-2 2.5 ng/mL) [22] | 4.8
SNK-6 (IL-2 2.5 ng/mL) [23] | 0
YT (IL-2 2.5 ng/mL) [24] | 3.17
[15] | 0
[25] | 2.44
[26] | 2.74
[27] | 0
[28] | 0

COc1cc(OC2CCN(C)CC2)ccc1Nc1ncc2c(n1)n(C1CCCC1)c(=O)n2C [AZ 3146] (max concentration tested 10000 nM)
percent inhibition of viability [%]
Conditions | 1 nM | 10 nM | 100 nM | 1000 nM | 10000 nM
DERL-7 (IL-2 2.5 ng/mL) [2] | -4.12 | 4.05 | 2.89 | 9.9 | 98.6
IMC-1 (IL-2 20 ng/mL) [3] | -1.3 | 2.72 | 8.86 | 9.14 | 100
KAI3 (IL-2 2.5 ng/mL) [4] | -6.95 | -0.01 | 1.16 | 23.6 | 97.9
KHYG-1 (IL-2 2.5 ng/mL) [5] | 3.47 | 1.13 | 9.55 | 13.1 | 104
NK-92 (IL-2 2.5 ng/mL) [6] | 0.39 | -0.68 | 10.8 | -7.78 | 55.7
NK-YS (IL-2 2.5 ng/mL) [7] | 1 | 1.98 | 6.37 | 19 | 93.4
NKL (IL-2 2.5 ng/mL) [8] | -14.9 | -7.34 | -5.85 | 12.7 | 92.9
SNK-6 (IL-2 2.5 ng/mL) [9] | 16.5 | 16.6 | 28.5 | 15.2 | 90
YT (IL-2 2.5 ng/mL) [10] | 2.24 | 1.06 | 7.18 | 13.3 | 92.1
[1] | -2.2 | 0.53 | -2.22 | 4.68 | 95.5
[11] | -2.73 | -14.2 | -10.5 | 0.05 | 89.1
[12] | 8.87 | -6.36 | 1.82 | 9.09 | 81.8
[13] | -14.1 | -0.67 | 12.1 | 6.73 | 74.2
[14] | -14.2 | 1.88 | 2.52 | 5.03 | 80

Conditions | drug sensitivity score
DERL-7 (IL-2 2.5 ng/mL) [16] | 7.08
IMC-1 (IL-2 20 ng/mL) [17] | 7.02
KAI3 (IL-2 2.5 ng/mL) [18] | 9.06
KHYG-1 (IL-2 2.5 ng/mL) [19] | 7.83
NK-92 (IL-2 2.5 ng/mL) [20] | 2.49
NK-YS (IL-2 2.5 ng/mL) [21] | 8.24
NKL (IL-2 2.5 ng/mL) [22] | 7.26
SNK-6 (IL-2 2.5 ng/mL) [23] | 7.53
YT (IL-2 2.5 ng/mL) [24] | 7.34
[15] | 5.96
[25] | 4.98
[26] | 6.04
[27] | 5.18
[28] | 5.18
